Measured values: US20230295157A1, “3-(1H-IMIDAZOL-2-YL)-2,3,8,8A-TETRAHYDROINDOLIZIN-5(1H)-ONE DERIVATIVES USEFUL AS FACTOR XIA INHIBITORS” (JANSSEN PHARMACEUTICA NV, priority 2020, published 2023)
Where two headings read alike, the source gives them in different places.

How the values were obtained:
human plasma kallikrein = human plasma kallikrein (Homo sapiens (Human), UniProt P03952); test: Kallikrein inhibition assay (FLINT) utilizing a quenched AMC peptide substrate; type: biochemical; conditions: 30 min preincubation, kinetic reads over 30 min, Z-Gly-Pro-Arg-AMC substrate 50 μM; read-out: Kallikrein Kin Inh IC50
Chain of human plasma kallikrein (P03952 391-638): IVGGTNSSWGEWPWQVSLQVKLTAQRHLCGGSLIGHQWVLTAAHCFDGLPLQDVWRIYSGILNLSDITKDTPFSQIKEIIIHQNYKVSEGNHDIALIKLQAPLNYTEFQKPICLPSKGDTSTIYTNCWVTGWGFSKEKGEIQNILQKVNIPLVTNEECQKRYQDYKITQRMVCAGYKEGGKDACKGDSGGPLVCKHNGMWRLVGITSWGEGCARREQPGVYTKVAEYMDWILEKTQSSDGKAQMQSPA
Chain of human plasma kallikrein (P03952 20-390 partner): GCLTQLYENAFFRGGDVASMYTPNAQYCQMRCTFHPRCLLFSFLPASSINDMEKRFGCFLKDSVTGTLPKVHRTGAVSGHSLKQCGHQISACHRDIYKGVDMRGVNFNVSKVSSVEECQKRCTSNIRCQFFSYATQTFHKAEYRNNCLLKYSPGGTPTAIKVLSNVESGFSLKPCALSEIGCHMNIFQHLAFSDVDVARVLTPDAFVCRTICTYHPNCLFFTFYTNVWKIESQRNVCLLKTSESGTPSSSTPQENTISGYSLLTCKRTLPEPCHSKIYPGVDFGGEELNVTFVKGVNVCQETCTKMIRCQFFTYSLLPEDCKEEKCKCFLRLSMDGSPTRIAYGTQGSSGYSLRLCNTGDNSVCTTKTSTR
Description: Biological Example 2: Kallikrein Inhibition Assay Utilizing a Quenched AMC Peptide Substrate A fluorescence intensity (FLINT) based assay was used to monitor inhibition of human plasma kallikrein.
The Kallikrein FLINT assay was used with the following Z-Gly-Pro-Arg-AMC assay buffer: 50 mM Tris, pH 7.5, 100 mM NaCl, 5 mM CaCl2), 0.1 mg/mL BSA, 0.03% CHAPS. Assay buffer was prepared by mixing all ingredients fresh. 2×Z-Gly-Pro-Arg-AMC peptide substrate was prepared by diluting 10 mM stock into 1×assay buffer for a 100 μM working concentration (50 μM final concentration). The 2×kallikrein stock solution was prepared by diluting 14.76 μM stock in 1×assay buffer for a 4 nM working stock solution (2 nM final concentration).
Test compound(s) were run in an 11-point, 3-fold serial dilution with a final top compound concentration of 1 μM. Final DMSO in assay was 2%. Plasma kallikrein was pre-incubated for 30-minute with compound and then 50 μM substrate was added to initiate the reaction. The assay was run with kinetic (KIN) reads at 5 min intervals over 30 minutes. […] More specifically, the assay was run as follows: • 100 nL of 0.1 mM test compound was dispensed into black 384-well non-binding Greiner BioOne 784900 plate for 1 μM final concentration; • 5 μL of 1×assay buffer was dispensed to columns 24 (low control) and 5 μL 2×human kallikrein enzyme solution was dispensed to columns 1-23 (column 23 high control); • the plate was centrifuged with a “cover” plate at 500 rpm for 1 min • the plate was pre-incubated for 30 minutes at room temperature with plate covered; • 5 μL of 2×Z-Gly-Pro-Arg-AMC peptide substrate was dispensed into the entire plate, columns 1-24; • the plate was centrifuged with a “cover” plate at 500 rpm for 1 min; • the plate was read monitoring fluorescence intensity on the BMG PHERAStar at room temperature, using fluorescence module 340 nm/440 nm.
(§1) Percent inhibition (IC50) curves were generated per compound tested, and data was analyzed using a 4-parameter logistic fit using GeneData Screener. The relative fluorescence unit (RFU) values were normalized to percent inhibition using the following equation:
% inhibition=((HC-LC)−(compound-LC)\(HC-LC))*100 where LC—low control=mean signal of human kallikrein enzyme or 100% inhibition of human kallikrein enzyme; HC—high control=mean signal of Factor XIa+Z-Gly-Pro-Arg-AMC peptide substrate with DMSO only.
(§2) An 11-point dose response curve for the test compound(s) was generated using GENDATA to determine IC50 value based on the following equation:
Y=Bottom+(Top-Bottom)/(1+10^((logIC50−X)*HillSlope)) where Y is the % inhibition in the presence of X inhibitor concentration, Top=high control=mean signal of human kallikrein enzyme+Z-Gly-Pro-Arg-AMC peptide substrate with DMSO only; Bottom=low control−mean signal of no human kallikrein enzyme or 100% inhibition of human kallikrein enzyme; HillSlope—Hill coefficient; and IC50=concentration of compound with 50% inhibition in relation to top/high control.

Factor XIa = Factor XIa (Homo sapiens (Human), UniProt P03951); test: Factor XIa inhibition assay (FLINT) utilizing a fluorophore-quencher pair peptide substrate; type: biochemical; conditions: 30 min preincubation, kinetic reads over 30 min, read-out: FXIa Kin Inh IC50
Chain of Factor XIa (P03951 388-625): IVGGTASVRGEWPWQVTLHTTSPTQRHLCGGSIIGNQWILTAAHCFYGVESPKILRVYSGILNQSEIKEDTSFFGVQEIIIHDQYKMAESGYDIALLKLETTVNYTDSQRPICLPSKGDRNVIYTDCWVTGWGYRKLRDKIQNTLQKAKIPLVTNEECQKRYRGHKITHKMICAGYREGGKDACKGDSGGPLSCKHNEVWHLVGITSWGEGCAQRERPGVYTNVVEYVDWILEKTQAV
Chain of Factor XIa (P03951 19-387 partner): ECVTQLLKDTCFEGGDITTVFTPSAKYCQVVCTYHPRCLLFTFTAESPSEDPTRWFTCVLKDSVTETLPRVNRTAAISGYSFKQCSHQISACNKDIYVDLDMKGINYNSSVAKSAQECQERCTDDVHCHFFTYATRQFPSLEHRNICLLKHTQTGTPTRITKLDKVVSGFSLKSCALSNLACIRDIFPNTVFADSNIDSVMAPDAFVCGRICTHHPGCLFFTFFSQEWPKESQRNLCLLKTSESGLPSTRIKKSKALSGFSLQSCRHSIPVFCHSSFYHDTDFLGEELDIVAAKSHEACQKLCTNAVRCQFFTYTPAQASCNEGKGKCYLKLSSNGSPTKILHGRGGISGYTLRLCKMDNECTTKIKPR
Description: Biological Example 1: Factor XIa Inhibition Assay Utilizing a Fluorophore-Quencher Pair Peptide Substrate
A fluorescence intensity (FLINT) based assay was used to monitor inhibition of Factor XIa. The peptide substrate, 5Fam-[…]-K5Tamra (purchased from New England Peptide) was chosen based on the FXI sequence. Conversion of zymogen […]. The custom peptide used in this assay was based on the Arg146 cleavage site of FXI. The peptide substrate was designed with a fluorophore-quencher pair, where the fluorescence is quenched until FXIa cleaves the 8-mer peptide after the Arg residue.
The Factor XIa FLINT assay was used with the following 5Fam-[…]-K5Tamra assay buffer: 50 mM Tris, pH 7.5, 100 mM NaCl, 5 mM CaCl2), 0.1 mg/mL BSA, 0.03% CHAPS. Assay buffer was prepared by mixing all ingredients fresh. 5Fam-[…]-K5Tamra peptide substrate was first prepared at 10 mM in 100% DMSO, then diluted to 3 mM in 100% DMSO. Assay buffer was then added directly to the 3 mM stock of substrate to prepare the 30 μM 2× working concentration (15 μM final concentration). The 2×Factor XIa stock solution was prepared by diluting 6.562 μM stock in 1×assay buffer for a 200 μM working stock solution (100 μM final concentration).
Test compound(s) were run in an 11-point, 3-fold serial dilution with a final top compound concentration of 100 nM. Final DMSO in assay was 2%. FXIa was preincubated with compound for 30-minutes and then substrate was added to initiate the reaction. The assay was run with kinetic (KIN) reads at 5 min intervals over 30 minutes. The time course was linear using 100 μM FXIa greater than 30 minutes. More specifically, the assay was run as follows: • 100 nL of 0.01 mM test compound was dispensed into black 384 well non-binding Greiner BioOne 784900 plate for 0.1 μM final concentration; • 5 μL of 1×assay buffer was dispensed to column 24 (low control) and 5 μL 2×Factor XIa solution was dispensed to columns 1-23 (column 23 high control); • the plate was centrifuged with a “cover” plate at 500 rpm for 1 min • the plate was pre-incubated for 30 minutes at room temperature with plate covered; • 5 μL of 2×5Fam-[…]-K5Tamra peptide substrate was dispensed into the entire plate, columns 1-24; • the plate was centrifuged with a “cover” plate at 500 rpm for 1 min; • the plate was read monitoring fluorescence intensity on the BMG PHERAStar at room temperature, using fluorescence module 485 nm/520 nm.
as §1
% inhibition=((HC-LC)−(compound−LC)/(HC-LC))*100
where LC—low control=mean signal of no Factor XIa or 100% inhibition of Factor XIa; HC—high control=mean signal of Factor XIa+5Fam-[…]-K5Tamra peptide substrate with DMSO only.
as §2
Y=Bottom+(Top-Bottom)/(1+10^((logIC50-X)*HillSlope))
where Y is the % inhibition in the presence of X inhibitor concentration, Top=high control=mean signal of Factor XIa+5Fam-[…] K5Tamra peptide substrate with DMSO only; Bottom=low control−mean signal of no Factor XIa or 100% inhibition of Factor XIa; HillSlope—Hill coefficient; and IC50=concentration of compound with 50% inhibition in relation to top/high control.
Representative compounds of the present invention were tested according to the procedure described in Biological Example 1 and Biological Example 2 above, with results as listed in Table 3, below.

[1] = 5Fam-KLTRAETV-K5Tamra substrate 15 μM
[2] = 5Fam-[…]-K5Tamra substrate 15 μM

## Cn1ncc(NC(=O)C2CC2)c1-c1c[nH]c([C@@H]2CC[C@H]3CC(c4c(-n5cnnn5)ccc(Cl)c4F)=CC(=O)N32)n1 [Example 247, N-[5-[2-[(3S,8aS)-7-[3-Chloro-2-fluoro-6-(tetrazol-1-yl)phenyl]-5-oxo-2,3,8,8a-tetrahydro-1H-indolizin-3-yl]-1H-imidazol-4-yl]-1-methyl-pyrazol-4-yl]cyclopropanecarboxamide]
Human plasma kallikrein
  IC50: 15.6 nM
Factor XIa; [1]
  IC50: 0.7 nM

## O=C1C=C(c2c(-n3cnnn3)ccc(Cl)c2F)C[C@H]2CC[C@@H](c3ncc(-c4cc[n+]([O-])c(CO)c4F)[nH]3)N12 [Example 65, 4-(2-((3S,8aR)-7-(3-chloro-2-fluoro-6-(1H-tetrazol-1-yl)phenyl)-5-oxo-1,2,3,5,8,8a-hexahydroindolizin-3-yl)-1H-imidazol-5-yl)-3-fluoro-2-(hydroxymethyl)pyridine 1-oxide]
Human plasma kallikrein
  IC50: 420 nM
Factor XIa; [1]
  IC50: 45.4 nM

## CC(C)(O)COc1nccc(-c2cnc([C@@H]3CC[C@@H]4CC(c5c(-n6cnnn6)ccc(Cl)c5F)=CC(=O)N43)[nH]2)c1F [Example 166, (3S,8aR)-7-[3-chloro-2-fluoro-6-(tetrazol-1-yl)phenyl]-3-[5-[3-fluoro-2-(2-hydroxy-2-methyl-propoxy)-4-pyridyl]-1H-imidazol-2-yl]-2,3,8,8a-tetrahydro-1H-indolizin-5-one]
Human plasma kallikrein
  IC50: 6.6 nM
Factor XIa; [1]
  IC50: 0.8 nM

## NC(=O)c1ccc(-c2cnc([C@@H]3CC[C@@H]4CC(c5c(-n6cnnn6)ccc(Cl)c5F)=CC(=O)N43)[nH]2)cn1 (single isomer, unassigned) [Example 225]
Human plasma kallikrein
  IC50: 16.6 nM
Factor XIa; [1]
  IC50: 2.6 nM

## O=C1C=C(c2c(-n3cnnn3)ccc(Cl)c2F)C[C@H]2CC[C@@H](c3nc(F)c(-c4ccnc(CO)c4F)[nH]3)N12 [Example 107, (3S,8aR)-7-[3-chloro-2-fluoro-6-(tetrazol-1-yl)phenyl]-3-[4-fluoro-5-[3-fluoro-2-(hydroxymethyl)-4-pyridyl]-1H-imidazol-2-yl]-2,3,8,8a-tetrahydro-1H-indolizin-5-one]
Human plasma kallikrein
  IC50: 6.5 nM
Factor XIa; [1]
  IC50: 0.7 nM

## O=C1C=C(c2c(-n3cnnn3)ccc(Cl)c2F)C[C@H]2CC[C@@H](c3ncc(-c4c[nH]c(C(F)(F)F)n4)[nH]3)N12 [Example 231, (3S,8aR)-7-(3-Chloro-2-fluoro-6-(1H-tetrazol-1-yl)phenyl)-3-(2-(trifluoromethyl)-1H,3′H-[4,4′-biimidazol]-2′-yl)-2,3,8,8a-tetrahydroindolizin-5(1H)-one]
Human plasma kallikrein
  IC50: 84.6 nM
Factor XIa; [1]
  IC50: 37.1 nM

## Nc1nccc(-c2cnc([C@@H]3CC[C@@H]4CC(c5c(-n6cnnn6)ccc(Cl)c5F)=CC(=O)N43)[nH]2)c1F [Example 126, (3S,8aR)-3-[5-(2-amino-3-fluoro-4-pyridyl)-1H-imidazol-2-yl]-7-[3-chloro-2-fluoro-6-(tetrazol-1-yl)phenyl]-2,3,8,8a-tetrahydro-1H-indolizin-5-one]
Human plasma kallikrein
  IC50: 4.6 nM
Factor XIa; [1]
  IC50: 0.5 nM

## O=C1C=C(c2c(-n3cnnn3)ccc(Cl)c2F)C[C@H]2CC[C@@H](c3ncc(-c4ccnc(N5CC6(COC6)C5)c4F)[nH]3)N12 (single isomer, unassigned) [Example 108, (3S*,8aR)-7-(3-chloro-2-fluoro-6-(1H-tetrazol-1-yl)phenyl)-3-(5-(3-fluoro-2-(2-oxa-6-azaspiro[3.3]heptan-6-yl)pyridin-4-yl)-1H-imidazol-2-yl)-2,3,8,8a-tetrahydroindolizin-5(1H)-one]
Human plasma kallikrein
  IC50: 5.7 nM
Factor XIa; [2]
  IC50: 2.9 nM

## O=C1C=C(c2c(-n3cnnn3)ccc(Cl)c2F)CC2CC[C@@H](c3nc(-c4ccnc(OCCO)c4)c[nH]3)N12 (single isomer, unassigned) [Example 9]
Human plasma kallikrein
  IC50: 8.5 nM
Factor XIa; [1]
  IC50: 2.1 nM

## C[C@H](O)c1nccc(-c2[nH]c([C@@H]3CC[C@@H]4CC(c5cc(Cl)ccc5-n5cnnn5)=CC(=O)N43)nc2F)c1F (relative stereo) [Example 46, (3S,8aR)-7-(5-chloro-2-(1H-tetrazol-1-yl)phenyl)-3-(4-fluoro-5-(3-fluoro-2-((S*)-1-hydroxyethyl)pyridin-4-yl)-1H-imidazol-2-yl)-2,3,8,8a-tetrahydroindolizin-5(1H)-one]
Human plasma kallikrein
  IC50: 35.5 nM
Factor XIa; [2]
  IC50: 5.4 nM

## COC(=O)Nc1ccc(-c2cnc([C@@H]3CC[C@@H]4CC(c5c(-n6cnnn6)ccc(Cl)c5F)=CC(=O)N43)[nH]2)cc1 [Example 341, Methyl (4-(2-((3S,8aR)-7-(3-chloro-2-fluoro-6-(1H-tetrazol-1-yl)phenyl)-5-oxo-1,2,3,5,8,8a-hexahydroindolizin-3-yl)-1H-imidazol-5-yl)phenyl)carbamate]
Human plasma kallikrein
  IC50: 1.3 nM
Factor XIa; [1]
  IC50: 0.2 nM

## NC(=O)Cc1nccc(-c2cnc([C@@H]3CC[C@@H]4CC(c5c(-n6cc(C(F)(F)F)nn6)ccc(Cl)c5F)=CC(=O)N43)[nH]2)c1F (single isomer, unassigned) [Example 165, 2-(4-(24(3*S,8a*R)-7-(3-chloro-2-fluoro-6-(4-(trifluoromethyl)-1H-1,2,3-triazol-1-yl)phenyl)-5-oxo-1,2,3,5,8,8a-hexahydroindolizin-3-yl)-1H-imidazol-5-yl)-3-fluoropyridin-2-yl)acetamide]
Human plasma kallikrein
  IC50: 123 nM
Factor XIa; [1]
  IC50: 8 nM

## Cn1cc(NC(=O)C2CC2)c(-c2c[nH]c([C@@H]3CC[C@H]4CC(c5c(-n6cnnn6)ccc(Cl)c5F)=CC(=O)N43)n2)n1 [Example 275, N-(3-(2-((3S,8aS)-7-(3-Chloro-2-fluoro-6-(1H-tetrazol-1-yl)phenyl)-5-oxo-1,2,3,5,8,8a-hexahydroindolizin-3-yl)-1H-imidazol-4-yl)-1-methyl-1H-pyrazol-4-yl)cyclopropanecarboxamide]
Human plasma kallikrein
  IC50: 15.6 nM
Factor XIa; [1]
  IC50: 24.4 nM
